Laboratory results as given in patent publication US9708270B2, “Substituted spiropiperidinyl compounds useful as GPR120 agonists” (Merck Sharp & Dohme Corp., priority 2012, dated 2017).

What follows are compounds tested against T1, human GPR120 (Homo sapiens (Human), UniProt Q5NUL3) (assay: FLIPR assay: intracellular calcium in CHO cells expressing human GPR120). Settings: FLIPR calcium assay, CHO cells expressing human GPR120, agonist action.
T1 sequence (Q5NUL3 whole entry): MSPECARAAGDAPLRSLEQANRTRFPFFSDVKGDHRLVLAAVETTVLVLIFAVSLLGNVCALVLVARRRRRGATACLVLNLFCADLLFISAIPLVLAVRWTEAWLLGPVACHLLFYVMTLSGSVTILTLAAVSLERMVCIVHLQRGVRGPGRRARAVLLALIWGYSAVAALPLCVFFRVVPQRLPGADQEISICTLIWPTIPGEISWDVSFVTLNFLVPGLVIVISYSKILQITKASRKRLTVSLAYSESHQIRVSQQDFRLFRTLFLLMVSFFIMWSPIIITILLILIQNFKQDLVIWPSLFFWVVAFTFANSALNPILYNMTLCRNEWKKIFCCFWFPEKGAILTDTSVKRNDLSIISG
Type: cell-based
Experimental: All compounds were tested under the FLIPR assay unless otherwise indicated.
Primers were synthesized in the domains on the opposite sides of the base sequences of the ORFs of the known GPCR and GPR120 in GenBank Accession NOs. […] The base sequences of the primers used are described below. The restriction enzymes, BamHI and EcoRI, recognition sites were introduced for subcloning, respectively.
As samples for PCR, human small intestine Marathon-ready cDNA (CLONTECH, current corporate name: TaKaRa) and cDMA obtained by reverse transcription of mouse BAT-derived RNA were used for human and mouse GPR120 receptor genes, respectively.
Using KOD Plus (TOYOBO) for PCR, 30 cycles of 94° C. for 2 minutes, 94° C. for 15 seconds, 55° C. for 30 seconds and 68° C. for 1 minute were carried out to effect reaction, followed by addition of 0.5 units of ExTaq (TaKaRa) and incubation at 72° C. for 10 minutes to carry out A-addition reaction to terminals. For mouse PCR, 35 cycles were carried out on the condition of a final DMSO concentration of 2%.
Cloning of amplified PCR products was carried out using pCR2.1-TOPO TA cloning kit (Invitrogen). For verification of base sequences, electrophoresis was carried out using BigDye Terminator Cycle Sequencing Ready Reaction Kit Ver.
The GPR120 receptor genes cloned into pCR2.1-TOPO vectors, into which the restriction enzymes, BamHI and EcoRI, recognition sites were introduced, were excised from the vectors by the enzymes and subcloned into the BamHI and EcoRI recognition sites of eukaryotic expression vector EF1/V5-His B (Invitrogen).
Test 2: Production of Expression Cells
Using Lipofectamine 2000 (Invitrogen), cDNA of GPR120 receptor was transfected into CHO/NFAT-BLA cells, and drug-resistant cells were isolated to obtain GPR120 stable expression strains. The GPR120-expressed CHO cells were cultured in DMEM/F12 medium containing 10% fetal bovine serum, 100 units/ml penicillin, 0.1 mg/ml streptomycin sulfate, 250 μg/ml Zeocin, 500 μg/mL Geneticin and 15 mM HEPES.
Test 3: Measurement of Intracellular Calcium Concentration
To the cells was added the test compound diluted with HBSS solution containing 20 mM HEPES and 2.5 mM probenecid. Variations in the intracellular calcium concentration were measured by Fluorescence Imaging Plate Reader (FLIPR; Molecular Devices) to examine the agonist action, and EC50 values were calculated. […]
COc1cc(OC(F)(F)F)cc(N2CCC3(CCC(CC(=O)O)CC3)CC2)c1 [Example 49] showed an EC50 of 449 nM. Compound O=C(O)CC1CCC2(CCN(c3cc(OC(F)(F)F)ccc3Cl)CC2)OC1 (single isomer, unassigned) [Example 91A, (S)-2-(9-(2-chloro-5-(trifluoromethoxy)phenyl)-1-oxa-9-azaspiro[5.5]undecan-3-yl)acetic acid or (R)-2-(9-(2-chloro-5-(trifluoromethoxy)phenyl)-1-oxa-9-azaspiro[5.5]undecan-3-yl)acetic acid] has an EC50 of 636 nM. For Cc1ccc(C)c(N2CCC3(CCC(CC(=O)O)CC3)CC2)c1 [Example 58], the EC50 was 1440 nM. In the case of Cc1cc(C#N)cc(N2CCC3(CCC(CC(=O)O)CC3)CC2)c1 [Example 71], the EC50 is reported as 2960 nM. In the case of CC(C)Oc1ccc(Cl)c(N2CCC3(CCC(CC(=O)O)CC3)CC2)c1 [Example 18], the EC50 is reported as 530 nM. With O=C(O)CC1CCC2(CC1)CCN(c1cc(OC(F)(F)F)ccc1O)CC2 [Example 54] the EC50 was 681 nM. COc1ccc(Cl)c(N2CCC3(CCC(CC(=O)O)CC3)CC2)c1 [Example 8] showed an EC50 of 1670 nM. With COCCOc1ccc(Cl)c(N2CCC3(CCC(CC(=O)O)CC3)CC2)c1 [Example 80] the EC50 was 6970 nM. Work on O=C(O)CC1CCC2(CC1)CCN(c1cc(OC3CC3)ccc1F)CC2 [Example 62] yielded an EC50 of 2150 nM. CC1CC(CC(=O)O)CCC12CCN(c1cc(OC(F)(F)F)ccc1Cl)CC2 (centres unmarked) [Example 89, 2-(3-(2-Chloro-5-(trifluoromethoxy)phenyl)-7-methyl-3-azaspiro[5.5]undecan-9-yl)acetic acid] was tested, and the EC50 was 2490 nM. Compound O=C(O)C[C@@H]1CCC2(CCN(c3cc(OC(F)(F)F)ccc3F)CC2)OC1 (single isomer, unassigned) [Example 93b, (R) or (S) 2-(9-(2-fluoro-5-(trifluoromethoxy)phenyl)-1-oxa-9-azaspiro[5.5]undecan-3-yl)acetic acid] has an EC50 of 750 nM. O=C(O)CC1CCC2(CC1)CCN(c1cc([N+](=O)[O-])ccc1Cl)CC2 [Example 10] gave an EC50 of 1700 nM. Compound O=C(O)CC1CCC2(CC1)CCN(c1cc(OC3CC3)ccc1Cl)CC2 [Example 55] has an EC50 of 869 nM. For COc1cc(F)c(N2CCC3(CCC(CC(=O)O)CC3)CC2)cc1F [Example 6], the EC50 was 2420 nM. Compound Cc1ccc(Cl)c(N2CCC3(CCC(CC(=O)O)CC3)CC2)c1 [Example 9] has an EC50 of 2180 nM. CC(C)(C)c1cc(N2CCC3(CCC(CC(=O)O)CC3)CC2)cc(C(F)(F)F)c1 [Example 23] was tested, and the EC50 was 3750 nM. O=C(O)CC1CCC2(CC1)CCN(c1cc(Cl)cc(C(F)(F)F)c1)CC2 [Example 36] showed an EC50 of 832 nM. For Cc1cccnc1Oc1ccc(C#N)c(N2CCC3(CCC(CC(=O)O)CC3)CC2)c1 [Example 79], the EC50 was 6570 nM. In the case of COc1ccc(Cl)cc1N1CCC2(CCC(CC(=O)O)CC2)CC1 [Example 14], the EC50 is reported as 3100 nM. For NCCC1CCC2(CC1)CCN(c1cc(OC(F)(F)F)ccc1Cl)CC2 [Example 90, 2-(3-(2-chloro-5-(trifluoromethoxy)phenyl)-3-azaspiro[5.5]undecan-9-yl)ethanamine], the EC50 was 5610 nM. Compound FC(F)(F)Oc1ccc(Cl)c(N2CCC3(CCC(Cc4nn[nH]n4)CO3)CC2)c1 (racemic) [Example 92, 3-((2H-tetrazol-5-yl)methyl)-9-(2-chloro-5-(trifluoromethoxy)phenyl)-1-oxa-9-azaspiro[5.5]undecane] has an EC50 of 2630 nM. Compound N#Cc1ccc(OC(F)(F)F)cc1N1CCC2(CCC(CC(=O)O)CC2)CC1 [Example 35] has an EC50 of 431 nM. Cc1cc(Cl)cc(N2CCC3(CCC(CC(=O)O)CC3)CC2)c1C#N [Example 40] gave an EC50 of 2540 nM. COc1cc(C)cc(N2CCC3(CCC(CC(=O)O)CC3)CC2)c1 [Example 72] was tested, and the EC50 was 3060 nM. O=C(O)CCC1CCC2(CC1)CCN(c1cc(OC3CCC3)ccc1F)CC2 [Example 82, 3-(3-(5-Cyclobutoxy-2-fluorophenyl)-3-azaspiro[5.5]undecan-9-yl)propanoic acid] showed an EC50 of 1260 nM. O=C(O)CCCC1CCC2(CC1)CCN(c1cc(OC3CCC3)ccc1Cl)CC2 [Example 87] gave an EC50 of 2260 nM. For CC1CC(CC(=O)O)CCC12CCN(c1cc(OC(F)(F)F)ccc1Cl)CC2 (single isomer, unassigned) [Example 89c, 2-(3-(2-Chloro-5-(trifluoromethoxy)phenyl)-7-methyl-3-azaspiro[5.5]undecan-9-yl)acetic acid], the EC50 was 2490 nM. With O=C(O)CC1CCC2(CC1)CCN(c1cc(C(F)(F)F)ccc1Cl)CC2 [Example 2, 2-(3-(2-chloro-5-(trifluoromethyl)phenyl)-3-azaspiro[5.5]undecan-9-y)acetic acid] the EC50 was 900 nM. For CCc1cc(C)cc(N2CCC3(CCC(CC(=O)O)CC3)CC2)c1 [Example 46], the EC50 was 1290 nM. Compound O=C(O)CC1CCC2(CC1)CCN(c1cc(OC(F)(F)F)ccc1F)CC2 [Example 7] has an EC50 of 410 nM. For Cc1ccc(F)c(N2CCC3(CCC(CC(=O)O)CC3)CC2)c1 [Example 63], the EC50 was 2320 nM. CC1(C)Cc2cc(Cl)cc(N3CCC4(CCC(CC(=O)O)CC4)CC3)c2O1 [Example 11] showed an EC50 of 2850 nM.

These compounds were tested against T1, human GPR120 (assay: IP1 assay (GPR120 assay adapted from Bergsdorf et al.)). Settings: not given.
Type: cell-based
Source text: The EC50 values for the exemplified compounds are provided in the following examples and in the following tables. • IP1 Assay • IP1 assay results were obtained adapting the GPR120 assay described in C. Bergsdorf, et al., Assay Drug Dev. Technol., 2008, 6(1), 39-53. General Schemes
With COc1cc(F)c(N2CCC3(CCC(CCC(=O)O)C3)CC2)cc1OC1CCC1 (centres unmarked) [Example 107] the EC50 was 202 nM. Work on O=C(O)CCC1CCC2(CCN(c3cc(OC4CCC4)ccc3Cl)CC2)C1 (centres unmarked) [Example 105, 3-(8-(2-chloro-5-cyclobutoxyphenyl)-8-azaspiro[4.5]decan-2-yl)propanoic acid] yielded an EC50 of 44.8 nM. N#Cc1ccc(OC(F)(F)F)cc1N1CCC2(CCC(CCC(=O)O)C2)CC1 (centres unmarked) [Example 106] showed an EC50 of 220 nM.
